Eight compounds from PubChem BioAssay (NCI) can be followed below.

Among the test systems are MALME-3M melanoma; RXF 393 renal; HCC-2998 colon; SF-539 CNS; CCRF-CEM leukemia; HOP-62 NSCLC; SN12C renal; DU-145 prostate; KM12 colon; SW-620 colon.
What all share (assay): growth of human tumour cells (NCI), 48 h

SMILES strings stand for the structures.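 The compound was tested at five concentrations on cells cultured in 96-well plates, with a 48-hour exposure period. The concentration for 50% growth inhibition is given as GI50. TGI marks complete inhibition of growth.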

For `COc1ccc(C(=O)c2cc3c(N)c(C(=O)Nc4cccc(Cl)c4)sc3nc2C)cc1`, the GI50 was 1.28 µM in the assay with MALME-3M melanoma; 0.655 µM in the assay with RXF 393 renal; 1.92 µM in the assay on HCC-2998 colon; 0.995 µM in the assay on SF-539 CNS; 1.2 µM with CCRF-CEM leukemia; 2.24 µM with HOP-62 NSCLC. In addition, the GI50 in the assay with SN12C renal was 1.96 µM; in the assay with DU-145 prostate it was 1.26 µM; in the assay with KM12 colon, 1.25 µM; with SW-620 colon it was 1.67 µM. Besides, the TGI was above 33.3 µM with MALME-3M melanoma; 2.08 µM with RXF 393 renal; above 33.3 µM in the assay with HCC-2998 colon; 3.2 µM in the assay on SF-539 CNS; above 33.3 µM with CCRF-CEM leukemia; above 33.3 µM in the assay on HOP-62 NSCLC. Further, the TGI in the assay on SN12C renal, with DU-145 prostate, in the assay on KM12 colon and in the assay with SW-620 colon was above 33.3 µM throughout.
Consider `CC(C)Oc1cc(OCC(=O)O)cc(C(=O)N(CCC(N)=O)C(=O)Nc2ccc(C(=O)O)cc2OC(C)C)c1`, for which the GI50 with MALME-3M melanoma, in the assay on RXF 393 renal, in the assay with HCC-2998 colon, in the assay with SF-539 CNS, with CCRF-CEM leukemia and in the assay on HOP-62 NSCLC was above 100 µM in each case. Moreover, the GI50 in the assay on SN12C renal, with DU-145 prostate, in the assay with KM12 colon and in the assay on SW-620 colon was above 100 µM throughout. The TGI in the assay with MALME-3M melanoma, in the assay on RXF 393 renal, with HCC-2998 colon, with SF-539 CNS, with CCRF-CEM leukemia and in the assay on HOP-62 NSCLC was above 100 µM throughout. The TGI in the assay with SN12C renal, with DU-145 prostate, in the assay with KM12 colon and with SW-620 colon was above 100 µM in each case.
On to `O=c1ccc2nc(-c3ccccc3)nn(-c3ccccc3)c-2c1`, for which the GI50 was 0.479 µM with MALME-3M melanoma; 1.67 µM with RXF 393 renal; 5.13 µM with HCC-2998 colon; 1.92 µM with SF-539 CNS; 0.274 µM in the assay on CCRF-CEM leukemia; 5.34 µM with HOP-62 NSCLC. In addition, the GI50 in the assay on SN12C renal is 1.77 µM; with DU-145 prostate, 1.92 µM; in the assay on KM12 colon, 16.4 µM; in the assay with SW-620 colon, 1.65 µM. The TGI was found to be 1.67 µM in the assay on MALME-3M melanoma; 3.06 µM in the assay with RXF 393 renal; 12.3 µM in the assay with HCC-2998 colon; 3.76 µM with SF-539 CNS; 1.23 µM in the assay on CCRF-CEM leukemia; 26.1 µM in the assay on HOP-62 NSCLC. Besides, the TGI amounted to 3.53 µM in the assay with SN12C renal, 3.37 µM in the assay on DU-145 prostate, 37.5 µM in the assay with KM12 colon and 3.53 µM in the assay with SW-620 colon.
In the case of `CC[C@]1(O)C[C@@H]2CN(Cc3c([nH]c4ccccc34)[C@@](C(=O)OC)(c3cc4c(cc3OC)N(C)[C@H]3[C@@](O)(C(=O)OC)[C@H](OC(C)=O)[C@]5(CC)[C@@H]6C[C@@H]6CN6CC[C@]43[C@@H]65)C2)C1`, the GI50 in the assay on MALME-3M melanoma is 2.6 µM; with RXF 393 renal it was 0.111 µM; in the assay with HCC-2998 colon it was 0.116 µM; in the assay on SF-539 CNS, 0.0363 µM; with CCRF-CEM leukemia, 0.0369 µM; with HOP-62 NSCLC it was 0.153 µM. Moreover, the GI50 with SN12C renal was 0.232 µM; in the assay on DU-145 prostate, 0.0433 µM; in the assay with KM12 colon it was 0.0408 µM; in the assay with SW-620 colon, 0.0701 µM. In addition, the TGI in the assay with MALME-3M melanoma, with RXF 393 renal, with HCC-2998 colon, in the assay with CCRF-CEM leukemia, in the assay on HOP-62 NSCLC and in the assay with SN12C renal was above 4.38 µM each time. For the same compound, the TGI in the assay on DU-145 prostate, in the assay with KM12 colon and in the assay on SW-620 colon was above 4.38 µM each time.
For `CC(=O)OCC1OC(n2cc(F)c(=O)[nH]c2=O)C(OC(C)=O)C1OC(C)=O` (centres undefined), the TGI in the assay with MALME-3M melanoma is above 100 µM; in the assay with RXF 393 renal, 99.2 µM; with HCC-2998 colon it was above 100 µM; in the assay with SF-539 CNS, 52.1 µM; with CCRF-CEM leukemia, above 100 µM; in the assay with HOP-62 NSCLC, above 96.5 µM. For the same compound, the TGI in the assay with SN12C renal, in the assay on DU-145 prostate, in the assay on KM12 colon and with SW-620 colon was above 100 µM each time.
For the compound `COc1ccccc1/C=C1\COc2ccc(O)c(O)c2C1=O`, the GI50 in the assay on MALME-3M melanoma is 1.38 µM; in the assay on RXF 393 renal, 1.51 µM; in the assay with HCC-2998 colon it was 1.76 µM; in the assay with SF-539 CNS, 1.52 µM; in the assay on CCRF-CEM leukemia, 0.286 µM; with HOP-62 NSCLC, 3.1 µM. The GI50 with SN12C renal is 1.48 µM; in the assay on DU-145 prostate, 2.32 µM; in the assay with KM12 colon, 1.73 µM; with SW-620 colon, 1.48 µM. Besides, the TGI in the assay with MALME-3M melanoma was determined as 3.72 µM; in the assay with RXF 393 renal, 2.97 µM; in the assay with HCC-2998 colon it was 3.25 µM; in the assay on SF-539 CNS, 3.35 µM; in the assay with CCRF-CEM leukemia, 2.11 µM; in the assay with HOP-62 NSCLC it was 9.54 µM. The TGI in the assay on SN12C renal is 5.31 µM; in the assay with DU-145 prostate it was above 100 µM; in the assay on KM12 colon it was 3.89 µM; in the assay on SW-620 colon, 4.2 µM.
`COc1ccc(CCNc2nc3ccccc3c3[nH]c4ccccc4c23)cc1OC`: the GI50 is 1.5 µM in the assay with MALME-3M melanoma; 1.47 µM in the assay on RXF 393 renal; 1.6 µM with HCC-2998 colon; 2.17 µM in the assay on SF-539 CNS; 1.87 µM in the assay on CCRF-CEM leukemia; 10.9 µM with HOP-62 NSCLC. Also, the GI50 in the assay with SN12C renal was 3.58 µM; in the assay on DU-145 prostate, 3.85 µM; in the assay with KM12 colon it was 1.53 µM; with SW-620 colon, 2.34 µM. Moreover, the TGI was 3.15 µM with MALME-3M melanoma; 3.15 µM in the assay on RXF 393 renal; 3.1 µM in the assay on HCC-2998 colon; 4.06 µM in the assay with SF-539 CNS; 13.8 µM with CCRF-CEM leukemia; 24.4 µM in the assay on HOP-62 NSCLC. Besides, the TGI in the assay with SN12C renal turned out to be 16.5 µM; in the assay with DU-145 prostate, 15.8 µM; in the assay with KM12 colon, 3.58 µM; with SW-620 colon, 6.07 µM.
For the compound `Cc1ncc(C(=O)Nc2ccc(CN3CCN(C)CC3)c(C(F)(F)F)c2)cc1C#Cc1c(N)ncc2ccc(C#N)cc12`, the GI50 in the assay on MALME-3M melanoma was 0.0167 µM; in the assay on RXF 393 renal, 0.327 µM; in the assay with HCC-2998 colon it was 4.96 µM; with SF-539 CNS, 1.14 µM; in the assay on CCRF-CEM leukemia it was 1.41 µM; in the assay on HOP-62 NSCLC, 0.988 µM. In addition, the GI50 in the assay with SN12C renal is 1.16 µM; with DU-145 prostate it was 0.976 µM; in the assay with KM12 colon, 0.005 µM; in the assay with SW-620 colon, 0.661 µM. Also, the TGI in the assay on MALME-3M melanoma is 0.157 µM; with RXF 393 renal it was 1.29 µM; in the assay on HCC-2998 colon it was above 40.9 µM; with SF-539 CNS it was 8.06 µM; with CCRF-CEM leukemia, 16.5 µM; in the assay on HOP-62 NSCLC, 11.2 µM. Moreover, the TGI in the assay on SN12C renal came out at 17.9 µM; in the assay with DU-145 prostate it was 7.43 µM; in the assay on KM12 colon it was 2.09 µM; with SW-620 colon it was 10.3 µM.
